Measured values published in patent US5138101A, “Recovery of high-boiling aldehydes from rhodium-catalyzed hydroformylation processes” (Eastman Kodak Company, priority 1991, dated 1992).

Test: Rhodium concentration in the extraction solution phase after extraction, with and without sodium carboxylate salt
Assay type: physicochemical
Details: for Rh Conc.: extraction solution phase
Method: Each experiment employed an extraction temperature of 50° C., an agitation period of 30 minutes and a phase separation period of 5 minutes followed by sampling of the extraction solution phase. One mL aliquots of the lower, extraction solution phase was sampled for Rh analysis.
The results of these experiments are shown in Table IV wherein Na Conc. and Rh Conc. are the sodium [Na] and rhodium [Rh] concentrations in mg/L in the extraction solution phase. Also set forth in Table IV are the partition coefficients obtained for the C9-enal isomers, C10-dial isomers and the p diisopropylbenzene hydroformylation solvent (H.S.) in each example.
[…] […] The extractions were carried out at 50° C. using 62 mL of each hydroformylation product solution and 50 mL of an extraction mixture consisting of a 3:1 volume ratio of methanol and water.
Each extraction employed an agitation period of 30 minutes and a phase separation period of 5 minutes followed by sampling of the extraction solution phase. One mL aliquots of the lower, extraction solution phase was sampled for Rh analysis. […]

## [Rh] [Rh, rhodium]
Example 31, 50° C., Na 0
  Rh Conc. in extraction solution phase: 120 mg/L
Example 32, Na 82 mg/L as 2-ethylhexanoate
  Rh Conc. in extraction solution phase: 54 mg/L
Example 33, Na 164 mg/L as 2-ethylhexanoate
  Rh Conc. in extraction solution phase: 37 mg/L
Example 34, Na 327 mg/L as 2-ethylhexanoate
  Rh Conc. in extraction solution phase: 28 mg/L
Example 35, Na 653 mg/L as 2-ethylhexanoate
  Rh Conc. in extraction solution phase: 20 mg/L
Example 36, Na 1307 mg/L as 2-ethylhexanoate
  Rh Conc. in extraction solution phase: 12 mg/L
Example 37, 50° C., Na 0
  Rh Conc. in extraction solution phase: 56 mg/L
Example 38, Na 82 mg/L as oleate
  Rh Conc. in extraction solution phase: 6 mg/L
Example 39, Na 164 mg/L as oleate
  Rh Conc. in extraction solution phase: 5 mg/L
Example 40, Na 327 mg/L as oleate
  Rh Conc. in extraction solution phase: 4 mg/L
Example 41, Na 653 mg/L as oleate
  Rh Conc. in extraction solution phase: 4 mg/L
Example 42, Na 1307 mg/L as oleate
  Rh Conc. in extraction solution phase: 3.6 mg/L
Example 43, 50° C., Na 0
  Rh Conc. in extraction solution phase: 72 mg/L
Example 44, Na 82 mg/L as n butyrate
  Rh Conc. in extraction solution phase: 39 mg/L
Example 45, Na 164 mg/L as n butyrate
  Rh Conc. in extraction solution phase: 32 mg/L
Example 46, Na 327 mg/L as n butyrate
  Rh Conc. in extraction solution phase: 25 mg/L
Example 47, Na 653 mg/L as n butyrate
  Rh Conc. in extraction solution phase: 22 mg/L
Example 48, Na 1307 mg/L as n butyrate
  Rh Conc. in extraction solution phase: 15 mg/L
Example 49, methanol/water 37/27 mL, Na 0
  Rh Conc. in extraction solution phase: 18.6 mg/L
Example 50, methanol/water 37/27 mL, Na 100 as oleate
  Rh Conc. in extraction solution phase: 2.6 mg/L
Example 52, Ref. Ex. 1 (BISBI), MeOH:water 3:1, 50° C., Na 0
  Rh Conc. in extraction solution phase: 120 mg/L
Example 53, Ref. Ex. 1 (BISBI), Na 82 mg/L
  Rh Conc. in extraction solution phase: 54 mg/L
Example 54, Ref. Ex. 1 (BISBI), Na 164 mg/L
  Rh Conc. in extraction solution phase: 37 mg/L
Example 55, Ref. Ex. 1 (BISBI), Na 327 mg/L
  Rh Conc. in extraction solution phase: 28 mg/L
Example 56, Ref. Ex. 11 (TCHP), Na 0
  Rh Conc. in extraction solution phase: 7.6 mg/L
Example 57, Ref. Ex. 11 (TCHP), Na 82 mg/L
  Rh Conc. in extraction solution phase: 5.2 mg/L
Example 58, Ref. Ex. 11 (TCHP), Na 164 mg/L
  Rh Conc. in extraction solution phase: 2.6 mg/L
Example 59, Ref. Ex. 11 (TCHP), Na 327 mg/L
  Rh Conc. in extraction solution phase: 1.4 mg/L
Example 60, Ref. Ex. 12 (TBP), Na 0
  Rh Conc. in extraction solution phase: 6.2 mg/L
Example 61, Ref. Ex. 12 (TBP), Na 82 mg/L
  Rh Conc. in extraction solution phase: 5.4 mg/L
Example 62, Ref. Ex. 12 (TBP), Na 164 mg/L
  Rh Conc. in extraction solution phase: 5.6 mg/L
Example 63, Ref. Ex. 12 (TBP), Na 327 mg/L
  Rh Conc. in extraction solution phase: 5.4 mg/L
Example 64, Ref. Ex. 7 (TPP), Na 0
  Rh Conc. in extraction solution phase: 7.6 mg/L
Example 65, Ref. Ex. 7 (TPP), Na 82 mg/L
  Rh Conc. in extraction solution phase: 2.0 mg/L
Example 66, Ref. Ex. 7 (TPP), Na 164 mg/L
  Rh Conc. in extraction solution phase: 2.2 mg/L
Example 67, Ref. Ex. 7 (TPP), Na 327 mg/L
  Rh Conc. in extraction solution phase: 1.8 mg/L
Example 68, Ref. Ex. 13 (TOP), Na 0
  Rh Conc. in extraction solution phase: 1.2 mg/L
Example 69, Ref. Ex. 13 (TOP), Na 82 mg/L
  Rh Conc. in extraction solution phase: 1.0 mg/L
Example 70, Ref. Ex. 13 (TOP), Na 164 mg/L
  Rh Conc. in extraction solution phase: < 1 mg/L
Example 71, Ref. Ex. 13 (TOP), Na 327 mg/L
  Rh Conc. in extraction solution phase: < 1 mg/L
Example 72, Ref. Ex. 26 (BISBI, TPP), Na 0
  Rh Conc. in extraction solution phase: 30 mg/L
Example 73, Ref. Ex. 26 (BISBI, TPP), Na 82 mg/L
  Rh Conc. in extraction solution phase: 10 mg/L
Example 74, Ref. Ex. 26 (BISBI, TPP), Na 164 mg/L
  Rh Conc. in extraction solution phase: 8.2 mg/L
Example 75, Ref. Ex. 26 (BISBI, TPP), Na 327 mg/L
  Rh Conc. in extraction solution phase: 6.8 mg/L
Example 76, Ref. Ex. 27 (BISBI, TCHP), Na 0
  Rh Conc. in extraction solution phase: 10 mg/L
Example 77, Ref. Ex. 27 (BISBI, TCHP), Na 82 mg/L
  Rh Conc. in extraction solution phase: 1.8 mg/L
Example 78, Ref. Ex. 27 (BISBI, TCHP), Na 164 mg/L
  Rh Conc. in extraction solution phase: 2.8 mg/L
Example 79
  Rh Conc.: < 1 mg [Rh] per liter
Example 80
  Rh Conc.: < 1 mg [Rh] per liter
Example 81
  Rh Conc.: 3.0 mg [Rh] per liter
Example 82
  Rh Conc.: < 1 mg [Rh] per liter
Example 83
  Rh Conc.: 2.0 mg [Rh] per liter
Example 84
  Rh Conc.: < 1 mg [Rh] per liter
Example 85
  Rh Conc.: < 1 mg [Rh] per liter
Example 86
  Rh Conc.: < 1 mg [Rh] per liter
Example 87
  Rh Conc.: 1.2 mg [Rh] per liter
